pIC50: −log10 of the molar value. In brackets after ≈: the same amount, converted by molar mass. Like-named read-outs stand apart in the source and are kept apart here.

This is an account of results in patent publication US20210087191A1, “SUBSTITUTED 3-ISOBUTYL-9,10-DIMETHOXY-1,3,4,6,7,11B-HEXAHYDRO-2H-PYRIDO[2,1-a]ISOQUINOLIN-2-OL COMPOUNDS, THEIR [sequence], AND USE THEREOF” (DISPERSOL TECHNOLOGIES, LLC, priority 2020, published 2021).

A short description of series [1]: Kinetic solubility in PBS buffer. Type of series: physicochemical. As to conditions: aqueous buffer, kinetic from dmso stock, compound suspended at 300 μM, 25° C. As to the method: Kinetic solubility was determined by suspending compound at 300 μM at pH 1.2 and 7.4 in PBS buffer. The suspension was equilibrated by shaking at 25° C. at 1100 RPM for 2 hours and then pH was measured following filtration. The filtrate was then diluted by an appropriate factor (e.g. 100-fold). Quantitation was done by LC-MS/MS with reference to a standard solution.

Series [2] in a line: LM stability assay, human (second table). Type of series: in vitro ADME. As to conditions: human liver microsomes, Table 2. As for the experimental part:
Metabolism of compound(s) to release (+)-α-DTHBZ was determined by the half-life (t1/2) and intrinsic clearance (CIint) in human liver microsomes (LM) using tandem mass spectrometry (LC-MS/MS).
In general terms: Liver microsomes are a subcellular fraction often used to study metabolism.

A short description of series [3]: Metabolic stability in human liver microsomes (LM), LC-MS/MS (first table). Type of series: in vitro ADME. As to conditions: for microsomal CLint: Table 1, read-out: Human LM CLint (μL/min/mg protein); for half-life: Table 1, read-out: Human LM t1/2. As for the experimental part:
(§1) Metabolism of compound(s) to release (+)-α-DTHBZ was determined by the half-life (t1/2) and intrinsic clearance (CIint) in human plasma (PS) and liver microsomes (LM) using tandem mass spectrometry (LC-MS/MS).

The subject of series [4] is human cryopreserved hepatocytes. Kind of series: Heps. stability assay, human cryopreserved hepatocytes. The series is classed as in vitro ADME. As to the method: Metabolism of compound(s) to release (+)-α-DTHBZ was determined by the half-life (t1/2) and intrinsic clearance (CIint) in human cryopreserved hepatocytes using tandem mass spectrometry (LC-MS/MS).
The nature of series [5]: Stability in human plasma (PS), LC-MS/MS. Type of series: in vitro ADME. As for the experimental part:
as §1

Series [6] is described as follows: Permeability in Caco-2 cell monolayer. The series is classed as in vitro ADME. As to conditions: human; for efflux ratio: Caco-2; for Papp A→B: Caco-2, apical to basolateral; for Papp B→A: Caco-2, basolateral to apical. As to the method: The intestinal permeability of compound(s) was evaluated in Caco-2 cells by assessing transport across the cell monolayer in the apical to basolateral (A-B) direction. Active efflux was also assessed by measuring transport in the basolateral to apical (BA) direction which enables evaluation of the efflux ratio. Analysis of transport is quantified by tandem mass spectrometry (LC-MS/MS).
(In general: Passage across Caco-2 layers is used to estimate intestinal permeability.)

For series [7], the system named is VMAT1, other receptors (e.g., dopamine D2 receptors), transporters, and ion channels. As to conditions: in vitro; cited from earlier work.
The conditions of series [8]: cited from earlier work.
The conditions of series [9]: compared to the other three isomers; cited from earlier work.
Series [10] addresses vesicular monoamine transporter-2 (VMAT2) (Homo sapiens, UniProt Q05940). As to conditions: read-out: IC50, inhibition of catecholamine uptake by VMAT2; cited from earlier work.
For series [11] the following is noted: human, oral 25 mg IR formulation; cited from earlier work.
The conditions of series [12]: cited from earlier work. The source holds these as a separate data set.
For series [13] the following is noted: in vivo; cited from earlier work.
[14] abbreviates: pH 1.2, PBS buffer, read-out: Kinetic Solubility pH = 1.2 (300 μM).
[15] abbreviates: pH 7.4, PBS buffer, read-out: Kinetic Solubility pH = 7.4 (300 μM).

Sequence of vesicular monoamine transporter-2 (VMAT2) (Q05940 whole entry, species assumed): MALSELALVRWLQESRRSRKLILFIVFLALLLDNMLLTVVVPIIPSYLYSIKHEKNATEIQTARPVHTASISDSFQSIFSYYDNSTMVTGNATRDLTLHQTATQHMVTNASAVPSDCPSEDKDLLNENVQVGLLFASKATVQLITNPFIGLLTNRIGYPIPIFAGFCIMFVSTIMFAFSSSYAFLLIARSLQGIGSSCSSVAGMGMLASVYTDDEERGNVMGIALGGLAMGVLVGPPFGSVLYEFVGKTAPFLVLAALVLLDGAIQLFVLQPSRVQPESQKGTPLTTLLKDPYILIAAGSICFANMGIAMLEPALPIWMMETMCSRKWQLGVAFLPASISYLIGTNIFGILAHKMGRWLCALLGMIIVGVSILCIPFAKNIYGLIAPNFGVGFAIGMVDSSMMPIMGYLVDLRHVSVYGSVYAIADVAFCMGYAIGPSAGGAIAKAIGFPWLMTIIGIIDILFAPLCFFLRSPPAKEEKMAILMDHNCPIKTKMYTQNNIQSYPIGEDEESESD

With `COc1cc2c(cc1OC)[C@H]1C[C@@H](OC(=O)c3cncc(C(=O)O)c3)[C@H](CC(C)C)CN1CC2` [Example 6, 5-([[(2R,3R,11bR)-9,10-dimethoxy-3-(2-methylpropyl)-1H,2H,3H,4H,6H,7H,11bH-pyrido[2,1-a]isoquinolin-2-yl]oxy]carbonyl)pyridine-3-carboxylic acid], the kinetic solubility at 2 h turned out to be 276 µM (≈ 130 µg/mL) in series [1] (setting [14]) and 294 µM (≈ 138 µg/mL) in series [1] (setting [15]). Further, the microsomal CLint was 1.67 µL/min/mg in series [2] (read-out: LM stability assay Human Clint (μL/min/mg protein)) and less than 0.35 µL/min/mg in [3]. The half-life was 13.4 h in [2] (read-out: LM stability assay Human t1/2), more than 32.9 h in series [3] and more than 44.7 h in [5] (read-out: Human PS t1/2). For the same molecule, in [4], the “Heps. stability assay Human t1/2 (min)” value is given as “∞”. For the same molecule, the efflux ratio in series [6] came to 25.1. The same molecule returned a Papp A→B in [6] of 0.68 ×10⁻⁶ cm/s. In [6], this molecule yielded a Papp B→A of 17.1 ×10⁻⁶ cm/s.
With `COc1cc2c(cc1OC)[C@H]1C[C@@H](OC(=O)[C@@H](N)C(C)C)[C@H](CC(C)C)CN1CC2` [Valbenazine, (2R,3R,11bR)-9,10-dimethoxy-3-(2-methylpropyl)-1,3,4,6,7,11b-hexahydro-2H-benzo[a]quinolizin-2-yl L-valinate], in [7], the “affinity for VMAT1, other receptors, transporters, and ion channels” value is listed as “little or no affinity”. Besides, the oral bioavailability in [8] (in vivo, po) is given as 49%. Also, in series [8] (in vivo), the Tmax is 0.5 to 1 h, the excreted in feces is on record as 30%, the excreted in urine entry was “Approximately 60%” and the “parent compound or active metabolite excreted unchanged” value was “Less than 2%”. For the same molecule, in [8] (in vivo), the t1/2 was 15 to 22 h.
For `COc1cc2c(cc1OC)[C@H]1C[C@@H](O)[C@H](CC(C)C)CN1CC2` [(+)-α-DHTBZ, 2R,3R,11bR-dihydrotetrabenazine], the “Cmax (time) of (+)-α-DHTBZ formed from Valbenazine” value in series [8] (after Valbenazine, hydrolysis of the valine ester) is 4 to 8 h. Also, the “Tmax of (+)-α-DHTBZ after the administration of Valbenazine” value in series [8] (after administration of Valbenazine) is 4 to 8 h. For the same molecule, the “off-target affinity” value in series [9] is on record as “no off-target affinity”.
For the molecule `COc1cc2c(cc1OC)[C@H]1C[C@@H](OC(=O)CCC(=O)O)[C@H](CC(C)C)CN1CC2` [Example 2, 4-[[(2R,3R,11bR)-9,10-dimethoxy-3-(2-methylpropyl)-1H,2H,3H,4H,6H,7H,11bH-pyrido[2,1-a]isoquinolin-2-yl]oxy]-4-oxobutanoic acid], the kinetic solubility at 2 h in series [1] (setting [14]) amounted to 281 µM (≈ 118 µg/mL). The solubility (kinetic) at 2 h in series [1] (setting [15]) came out at 295 µM (≈ 124 µg/mL). Besides, the “LM stability assay Human t1/2 (min)” value in series [2] is on record as “∞”. For the same molecule, in [3], the microsomal CLint was less than 0.79 µL/min/mg and the half-life is more than 14.7 h. The “Heps. stability assay Human t1/2 (min)” value in [4] is “∞”. In addition, the “Human PS t1/2 (min)” value in series [5] is reported as “∞”. In addition, in series [6], the efflux ratio was found to be 2.54, the Papp A→B amounted to 8.67 ×10⁻⁶ cm/s and the Papp B→A turned out to be 22 ×10⁻⁶ cm/s.
As to `COc1cc2c(cc1OC)C1CC(=O)C(CC(C)C)CN1CC2` (stereo not shown) [TBZ, 3-isobutyl-9,10-dimethoxy-1,3,4,6,7,11b-hexahydro-2H-pyrido[2,1-a]isoquinolin-2-one], in series [10], the pIC50 was 8.49. For the same molecule, in series [11], the “Mean Tmax” value was “approximately 1 hour” and the “mean t1/2” value is recorded as “approximately 2 hours”. Moreover, the “solubility in acidic environments” value in series [12] (pH<2) is 8500 µg/mL (≈ 26.8 mM). The “solubility in neutral environments” value in series [12] (pH>4) was 30 µg/mL (≈ 0.0945 mM). In addition, the Tmax in series [13] is 1 h.

Broadly, the solubility (kinetic) is solubility judged after dilution from a stock solution rather than from solid. For orientation: efflux ratio means the permeability from basolateral to apical divided by that in the opposite direction, in the common usage. As usually defined, the Papp A→B is how fast a substance crosses the layer from the apical side. A word on the Papp B→A: it is how fast a substance crosses the layer from the basolateral side. Broadly, the Tmax is the time at which the peak concentration occurs. Broadly, the pIC50 is −log10 of the IC50, conventionally taken in molar units.
